Assay results taken from PMC9008208 (Frontiers in Cellular Neuroscience, 2022).

Key:
α9 nAChR = target: T1, α9 nAChR (Homo sapiens, UniProt Q9UGM1); experiment: two-electrode voltage clamp, Xenopus oocytes, concentration-response (partial agonist); assay type: cell-based
T1 construct: gene CHRNA9

α9α10 nAChR = target: T2, α9α10 nAChR (Homo sapiens, UniProt Q9GZZ6+Q9UGM1); experiment: as above; assay type: cell-based
T2 construct: gene CHRNA9; with nAChR subunit α10 (CHRNA10)
T2 sequence (Q9UGM1 23-479): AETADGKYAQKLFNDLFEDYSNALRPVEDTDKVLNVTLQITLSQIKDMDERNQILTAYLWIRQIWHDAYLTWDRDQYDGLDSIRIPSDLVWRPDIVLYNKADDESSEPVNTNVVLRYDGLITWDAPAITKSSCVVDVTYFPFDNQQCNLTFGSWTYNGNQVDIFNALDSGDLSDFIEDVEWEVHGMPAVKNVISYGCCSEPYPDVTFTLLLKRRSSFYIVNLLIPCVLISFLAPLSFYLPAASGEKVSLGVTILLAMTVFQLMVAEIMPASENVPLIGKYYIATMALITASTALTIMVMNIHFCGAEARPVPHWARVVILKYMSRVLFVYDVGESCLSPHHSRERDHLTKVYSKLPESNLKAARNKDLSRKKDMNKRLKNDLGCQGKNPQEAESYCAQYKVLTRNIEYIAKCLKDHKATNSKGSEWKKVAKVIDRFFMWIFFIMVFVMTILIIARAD
T2 sequence (Q9GZZ6 25-450): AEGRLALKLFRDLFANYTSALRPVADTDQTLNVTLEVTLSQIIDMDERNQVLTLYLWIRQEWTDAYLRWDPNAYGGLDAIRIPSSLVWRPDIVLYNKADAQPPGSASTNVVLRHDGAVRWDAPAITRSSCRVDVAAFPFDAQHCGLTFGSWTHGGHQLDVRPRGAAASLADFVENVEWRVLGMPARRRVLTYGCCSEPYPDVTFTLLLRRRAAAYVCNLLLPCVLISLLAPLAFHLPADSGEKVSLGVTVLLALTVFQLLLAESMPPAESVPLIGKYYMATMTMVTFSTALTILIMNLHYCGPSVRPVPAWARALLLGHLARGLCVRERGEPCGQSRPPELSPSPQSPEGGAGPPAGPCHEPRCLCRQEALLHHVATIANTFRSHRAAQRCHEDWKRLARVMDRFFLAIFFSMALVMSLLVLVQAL

T1 sequence (Q9UGM1 23-479): as the sequence (Q9UGM1 23-479) above

- EC50 (α9 nAChR): 7 µM
- EC50 (α9α10 nAChR): 6.4 µM
Compound: CC[N+]1(CC)CCN(c2ccc(C(F)(F)F)cc2)CC1 [pCF3-diEPP]
